# Results: article PMC7763843, “Cytochrome P450 Expression and Chemical Metabolic Activity before Full Liver Development in Zebrafish” (Pharmaceuticals, 2020)
# Structures can show the parent of a compound that is named as a salt. Where two headings read alike, the source gives them in different places.
# Legend:
# [1] = cited from earlier work; for Detection of metabolite of midazolam (neither has been detected): adult zebrafish liver microsomes or embryonic or larval microsomes or homogenates at up to 7 dpf
# [2] = tested on: zebrafish; conditions: cited from earlier work
# [3] = tested on: whole zebrafish embryo or larva; test: Contents of test compound metabolites per whole zebrafish embryo or larva; conditions: for Ce of caffeine per whole embryo or larva: metabolite experiment (Figure 6A), exposure to caffeine 10 mg/L
# Procedure: (§3) To calculate the content of each compound per one whole zebrafish embryo or larva (i.e., the Ce), we first determined the maximum test solution concentrations that caused neither morphological nor behavioral abnormalities during exposure. […] Beginning at 5 hpf, normal embryos were exposed to the test solution (>1 mL/embryo) in a glass container. The plastic lid of the container was kept closed, and the embryos and larvae were maintained for up to 120 hpf at 28 ± 1 °C on a 14-h light–10-h dark cycle.
# Then, the mixture was centrifuged at 20,000× g for 15 min at 10 °C with a refrigerated centrifuge (CR21N, Hitachi Koki). The supernatant was collected in a sampling tube. The extraction procedure was performed twice. The supernatants of two batches were mixed and the mixture was evaporated completely by nitrogen gas spraying. A solution (500 μL) of the same composition as the eluent for each compound was added to the tube, and then the solution was filtered through a Millex-LG membrane filter with a 0.2-μm pore size (Merck). The filtrate was double diluted with a solution of the same composition as the eluent for each compound, and the resulting solution was mixed to prepare the sample for measurement. For 1,7-dimethylxanthine, to standardize the content of the larval matrix, a mixture of larvae in the control or the vehicle control was added to each standard solution in a stepwise concentration to create each calibration curve.
# Each 5 μL sample was eluted in a mobile phase of methanol: water = 2:8 at a flow rate of 0.20 mL/min. 1,7-dimethylxanthine was monitored by using an ESI probe. Data were acquired in positive ion mode by using MRM. […]
# A calibration curve for each target substance (regression equation by using the least-squares method: Y = aX + b, where Y is the analytical response and X is the concentration of the target substance) was made by using four or five concentrations of standard solution. […] Then, all target substances were quantified by using the absolute calibration curve method and one concentration of standard solution. […]
# [4] = tested on: cyp2r1 mRNA
# Procedure: (§1) Embryos were dechorionized, except in the case of those exposed to TCDD due to high transparency. […] 1,7-Dimethylxanthine, 4′-OHDF, 5-OHDF, and 6β-hydroxytestosterone were obtained from Sigma-Aldrich. DMSO was purchased from Nacalai Tesque (Kyoto, Japan).
# (§2) Whole-mount in situ hybridization was performed as described previously. Paraformaldehyde-fixed embryos were hybridized with digoxigenin-incorporated antisense RNA probes of CYP subtypes at 65 °C overnight (DIG (digoxigenin) RNA Labeling Kit, Sigma-Aldrich). To obtain the CYP probes, CYP DNAs were amplified by PCR reaction with KOD FX Neo enzyme solution (Toyobo) with the primer sets listed in Table S2. This was followed by subcloning to pTAC2 TA vector (BioDynamics, Tokyo, Japan) and in vitro transcription with SP6 RNA polymerase (New England Biolabs, Ipswich, MA, USA). Following hybridization and washing, the embryos were incubated with anti-DIG antibody conjugated with alkaline phosphatase (Sigma-Aldrich) at 4 °C overnight. The color reaction was performed by incubation in BM Purple substrate or Fast Red (Sigma-Aldrich).
# [5] = tested on: cyp3a65 mRNA; conditions: in vivo
# Procedure: as §1, §2
# [6] = tested on: whole zebrafish embryo or larva; test: Content of test compound per one whole zebrafish embryo or larva (Ce) every 24 hpf; assay type: in vivo, Danio rerio; conditions: mean ± SD, n = 3; for Ce per one whole embryo or larva: 120 hpf, exposure from 5 hpf (caffeine 10 mg/L, diclofenac 3.2 mg/L, testosterone 3.0 mg/L), maximum for caffeine
# Procedure: The chorions of embryos were removed with forceps under a microscope before sampling for the Ce measurements. The dechorionated embryos (24 hpf) or the larvae (from 48 hpf onwards) were individually transferred through four beakers (for about 10 s per beaker) containing 500 mL of fresh dechlorinated tap water to remove chemical residues on the body surface. After that step, the embryos or larvae were homogenized with a silicone pestle in a 1.5 mL sampling tube containing a mixed solvent of the same composition as each liquid chromatography eluent to extract the test compound. The dechorionated embryos or the larvae were homogenized to extract the test compound. […] The supernatant was collected in a volumetric flask. The extraction procedure was performed twice, and the supernatants from the two batches were mixed and brought up to a volume of 1 mL with the mixed solvent of the same composition as each liquid chromatography eluent to extract the test compound.
# Data were acquired in positive ion mode by using multiple reaction monitoring (MRM).
# [7] = tested on: zebrafish embryos and larvae; test: Maximum test solution concentration causing neither morphological nor behavioral abnormalities; assay type: in vivo, Danio rerio; conditions: exposure from 5 hpf up to 120 hpf
# Procedure: as §3
# [8] = parameters: method as in PMID 11448232, PMID 7714751; conditions: cited from earlier work
# [9] = tested on: cyp2n13 mRNA; conditions: 55 hpf larvae; exposure from 30 hpf; 100 µM rifampicin or phenobarbital
# Procedure: as §1, §2
# [10] = tested on: cyp2y3 mRNA; conditions: 55 hpf larvae; exposure from 30 hpf; 100 µM rifampicin or phenobarbital
# Procedure: as §1, §2
# [11] = tested on: cyp2n13, 2r1, 2y3, and 3a65; test: qPCR of CYP subtypes in 55 hpf larvae after inducer exposure; conditions: 100 µM
# Excerpt: as §1
# [12] = 55 hpf larvae, exposure from 30 hpf, 1.0 ppb TCDD, 100 µM phenobarbital or rifampicin
compound,measurement,setting,value
OCc1ncc2n1-c1ccc(Cl)cc1C(c1ccccc1F)=NC2 [1-hydroxymidazolam],Detection of metabolite of midazolam (neither has been detected),[1],Neither
COc1ccc2c(c1)[C@@]13CCCC[C@H]1[C@@H](C2)NCC3 [3-Methoxymorphinan],Detection of metabolite of dextromethorphan,[1]; adult zebrafish liver microsomes,detected
Cc1ncc2n1-c1ccc(Cl)cc1C(c1ccccc1F)=NC2O (stereo not drawn) [4-hydroxymidazolam],Detection of metabolite of midazolam (neither has been detected),[1],Neither
C[C@]12CC[C@H]3[C@@H](C[C@@H](O)C4=CC(=O)CC[C@@]43C)[C@@H]1CC[C@@H]2O [6β-hydroxytestosterone],Detection of metabolite of testosterone,[2]; zebrafish larvae at 7 dpf or zebrafish adults,detected
same,Detection of metabolite in embryos or larvae,"[3]; 50 or 120 hpf, during exposure to testosterone",not detected
"Clc1cc2c(cc1Cl)Oc1cc(Cl)c(Cl)cc1O2 [TCDD, 2,3,7,8-tetrachlorodibenzo-p-dioxin]",cyp2r1 mRNA signal by in situ hybridization (location similar to liver),[4]; [12],Positive signals
same,cyp3a65 mRNA signal by in situ hybridization,[5],signal appeared in some
Cn1c(=O)c2c(ncn2C)n(C)c1=O [caffeine],Ce per one whole embryo or larva,[6],4.54 ± 0.10 ng
same,Maximum test solution concentration that caused neither morphological nor behavioral abnormalities during exposure,[7],10 mg/L
same,log Kow,[8],−0.07
same,Ce of caffeine per whole embryo or larva,[3]; 50 hpf,2.69 ± 0.14 ng
same,Ce of caffeine per whole embryo or larva,[3]; 120 hpf,5.15 ± 0.31 ng
COc1ccc2c(c1)[C@]13CCCC[C@@H]1[C@H](C2)N(C)CC3 [dextromethorphan],Detection of metabolites of the compound,"[1]; microsomes from whole embryos or larvae at 5, 24, 48, 72, 96, or 120 hpf",no metabolites of this compound have been detected
"O=C(O)Cc1ccccc1Nc1c(Cl)cccc1Cl [diclofenac, diclofenac sodium salt]",Ce per embryo or larva (maximum value),"[6]; 72 hpf, exposure to 3.2 mg/L from 5 hpf",1.64 ± 0.15 ng
same,Maximum test solution concentration that caused neither morphological nor behavioral abnormalities during exposure,[7],3.2 mg/L
same,log Kow,[8]; pH 7.4,1.13
CCOc1ccc(NC(C)=O)cc1 [phenacetin],Detection of human CYP1A2-mediated metabolites,[2]; zebrafish 7 dpf incubated with the drug,detected
CCC1(c2ccccc2)C(=O)NC(=O)NC1=O [phenobarbital],cyp2N13 mRNA expression by in situ hybridization,[9],detected
same,cyp2r1 mRNA signal by in situ hybridization (location similar to liver),[4]; in vivo,Positive signals
same,cyp2y3 mRNA by in situ hybridization (liver and intestine locations),[10],detectable
CO[C@H]1/C=C/O[C@@]2(C)Oc3c(C)c(O)c4c(O)c(c(/C=N/N5CCN(C)CC5)c(O)c4c3C2=O)NC(=O)/C(C)=C\C=C\[C@H](C)[C@H](O)[C@@H](C)[C@@H](O)[C@@H](C)[C@H](OC(C)=O)[C@@H]1C [rifampicin],cyp2N13 mRNA expression by in situ hybridization,[9],detected
same,cyp2r1 mRNA signal by in situ hybridization (location similar to liver),[4]; [12],Positive signals
Nc1c2c(nc3ccccc13)CCCC2 [tacrine],Detection of human CYP1A2-mediated metabolites,"[2]; zebrafish, in vivo",detected
C[C@]12CC[C@H]3[C@@H](CCC4=CC(=O)CC[C@@]43C)[C@@H]1CC[C@@H]2O [testosterone],Ce per embryo or larva (maximum value),"[6]; 48 hpf, exposure to 3.0 mg/L from 5 hpf",12.8 ± 1.14 ng
same,Ce per one whole embryo or larva,[6],1.43 ± 0.11 ng
same,Maximum test solution concentration that caused neither morphological nor behavioral abnormalities during exposure,[7],3.0 mg/L
O=c1cc(-c2ccccc2)oc2ccc3ccccc3c12 [β-naphthoflavone],"Significant induction of cyp2n13, 2r1, 2y3, and 3a65 by qPCR",[11],not recognized
